From patent US4758555A, “Method for treating convulsions and epilepsy with organic copper compounds” (priority 1986, dated 1988)

Legend:
[1] = Maximal Electroshock Seizure Test; assay type: in vivo, male Carworth Farms #1 mice or Sprague-Dawley rats; settings: Mus musculus; Table X; IP; at time of peak activity; read-out: ED50 for inhibition of seizures, MES (Phase II)
[2] = Anticonvulsant activity, both or unspecified seizure models; assay type: in vivo, male Carworth Farms #1 mice or Sprague-Dawley rats
[3] = cited from earlier work

O=C1NC(=O)C(c2ccccc2)(c2ccccc2)N1 [Dilantin, Phenytoin, reference compound]
ED50 [1]: 7 mg/kg
Time of peak effect ([2]; Phase II): 1 h
Time of peak activity (Phase II) ([2]; Table X, IP, challenge time): 1 h
Known effect of parent drug on seizures [3]: known to only inhibit Maximal Electroshock-induced seizures but it potentiates Metrazol-induced seizures
